# From patent US20250255876A1, “COMPOSITIONS AND METHODS FOR CANCER TREATMENT” (ARIEL SCIENTIFIC INNOVATIONS LTD., priority 2021, published 2025)
# “Also recorded” adds a separate entry of the source.
# Key:
# Type in all cases: cell-based
# MAD2L2 = MAD2L2 (Homo sapiens, UniProt Q9UI95); assay: Cellular thermal shift assay (CETSA) in 293T cells; conditions: 50 μM, 1 hour
# Protocol: The in vivo binding of MAD2L2 to the small molecule compounds was detected using the cellular thermal shift assay (CETSA), following their standard protocol. Briefly, 293T cells were grown to confluency and treated for 1 hour with the DMSO or selected compounds at 50 µM. Cells were collected and centrifuged for 3 min at 300 g, washed once with PBS, and each pellet was resuspended in 1 ml of PBS supplemented with Merck® 1000×protease inhibitor (539134). The cell suspensions were aliquoted and incubated for 3 min in the VWR XT96 thermal cycler using a gradient from 40°−55° C. Following heating, the tubes were incubated at room temperature for 3 min and then snap frozen in liquid nitrogen. The samples were then lysed via two subsequent freeze-thaw cycles with vortexing, and the lysates were centrifuged at 20,000 g for 20 min at 4° C. Finally, the cleared lysates were boiled in Laemmli buffer for 5 minutes.
# In order to validate that MAD2L2 is a direct target of c #2 and c #3, the inventors tested the compounds' binding kinetics to a recombinant protein by Field Effect Biosensing (FEB) technology. Briefly, purified GST-MAD2L2 was immobilized onto a […] chip, and the current across the chip is measured to determine the baseline current. Then, a soluble compound was flowed over the chip. Interaction of the soluble and immobilized molecules yields a detectable change in conductance of the biosensor. The Kon and Koff of the interaction were measured over time and were used to calculate the KD. The binding of both c #2 and c #3 to MAD2L2 is in the micromolar range: 31.08 μM and 44.88 μM, respectively (FIG. 13A). […] The in vivo binding of c #2 or c #3 to MAD2L2 was validated by using a cellular thermal shift assay (CETSA), which is a reliable reporter showing whether a molecule enters the cell and the nucleus and binds to the protein of interest. Briefly, under normal conditions, most of the MAD2L2 protein unfolds, aggregates and disappears from the soluble fraction of the lysate between 46° C. and 49° C. […]
# A549 cells = assay: Colony survival assay, A549 cells; conditions: for survival rate, combined treatment: A549, 5 μM cisplatin + 50 μM compound; for toxicity / cell viability, compound alone: A549, 50 μM compound alone; for sensitization effect to cisplatin: A549, cisplatin + 50 μM compound; for cell survival with cisplatin plus inhibitor: A549, varying cisplatin, 48 hours
# Protocol: (§1) H1975 cells were plated in 24-well plates at 50,000 cells/well (for 50 µM inhibitor treatment) or 20,000 cells/well (for […] inhibitor treatment). U2OS and A549 cells were plated in 24-well plates at 5000 cells/well. The next day, cells were treated with varying concentrations of cisplatin, either with or without added inhibitor compound. After 48 hours of cisplatin+compound treatment, the cells were washed 3 times with PBS×1 and fresh media applied. After 4 days of recovery, the cells were stained with methylene blue and imaged using a Nikon SMZ25 stereomicroscope. The images were analyzed using the ImageJ (National Institutes of Health) area measurement tool to quantify total colony size in each well.
# (§2) Cells were plated in 24-well plates at 50,000 cells/well (H1975 line) or 10,000 cells/well (A549 line). The next day, cells were treated with varying concentrations of cisplatin ([…]), with or without 50 μM compound. For the untreated control wells containing only cisplatin, DMSO was applied in place of the compound. After 48 hours of cisplatin+compound treatment, the cells were washed 3 times with PBS and fresh media was applied. After 4 days of recovery, the cells were stained with methylene blue and imaged using a Nikon SMZ25 stereomicroscope. The images were analyzed using the ImageJ (National Institutes of Health) area measurement tool to quantify total colony size in each well.
# (§3) In order to assess the ability of the selected compounds to sensitize cells during cisplatin treatment, the inventors established a colony survival assay comparing the viability of cells treated with cisplatin alone or with combined treatment of cisplatin and 50 μM compound. For the compound screen, we used two lung cancer cell lines: human non-small lung carcinoma H1975 cells, and epithelial lung adenocarcinoma A549 cells. Out of ten compounds tested, compounds c #2 and c #3 were identified with the most significant sensitization effect and were chosen for future characterization. […] Survival rate was reduced from 90% in 5 μM cisplatin treatment to 50% survival in the combined treatment (FIGS. 11A-B). H1975 cells presented similar behavior following doxorubicin treatment (FIG. 11C). IC50 was calculated using linear regression, presenting a clear reduction of cisplatin's IC50 in all treatments.
# H1975 cells = assay: Colony survival assay, H1975 cells; conditions: for survival rate, combined treatment: H1975, 5 μM cisplatin + 50 μM compound; for toxicity / cell viability, compound alone: H1975, 50 μM compound alone; for sensitization effect to cisplatin: H1975, cisplatin + 50 μM compound; for sensitization to doxorubicin: H1975, doxorubicin + 50 μM compound, 48 h; for cell survival with cisplatin plus inhibitor: H1975, varying cisplatin, 48 hours
# Protocol: as §1, §2, §3
# γH2AX foci in A549 cells = assay: γH2AX foci immunofluorescence, A549 cells; conditions: for cells with more than 80 foci or very bright signal, combined treatment / number of γH2AX foci/cell, combined treatment: A549, 10 μM cisplatin + 50 μM compound; for number of γH2AX foci/cell, combined treatment: overnight
# Protocol: H1975 and A549 cells were grown on glass coverslips in 12-well plates with the appropriate media, and fixed in 4% paraformaldehyde for 10 minutes at room temperature. Cells were permeabilizedin 0.5% TritonX100 in PBS×1 for 10 minutes at room temperature and then blocked in 5% BSA in 0.1% PBS×1-Tween for 1 hour at room temperature. Anti-phospho-Histone H2A.X primary antibody ([…]; 05-636-25UG) diluted 1:400 in 5% BSA in 0.1% PBS×1-Tween was added for 1 hour at room temperature. Fluorescent-dye conjugated secondary antibody was applied for 1 hour at room temperature. The coverslips were washed between each step with PBS×1. Nuclei were stained with DAPI (1:2000 dilution) at room temperature in the dark for 3 minutes. Coverslips were mounted on glass slides and imaged using an Olympus 1×81 microscope. For all treatments, cells with fewer than 80 foci were scored manually (FIG. 4B), and cells with more than 80 foci and very bright signals were scored automatically by using the “Analyze Particles” function in ImageJ (National Institutes of Health) after setting a suitable threshold.
# Next, the inventors examined whether combined treatment of cisplatin with c #2 or c #3 correlates with an increase in DNA damage, which might explain the compound's sensitization effect. A549 and H1975 cell lines were exposed to combined overnight treatment with cisplatin and c #2 or c #3, and the levels of γH2AX foci were monitored. In both cell lines, a clear increase in the number of foci was observed after combined treatment, compared to cells treated with cisplatin or compounds alone (FIG. 12A).
# Combined treatment of cisplatin with c #3 correlates with an increase in DNA damage. Levels of γ-H2AX foci, a marker for DNA double-strand breaks, were compared in H1975, A549 and B16F10 cell lines.
# Sequence of MAD2L2 (Q9UI95 whole entry): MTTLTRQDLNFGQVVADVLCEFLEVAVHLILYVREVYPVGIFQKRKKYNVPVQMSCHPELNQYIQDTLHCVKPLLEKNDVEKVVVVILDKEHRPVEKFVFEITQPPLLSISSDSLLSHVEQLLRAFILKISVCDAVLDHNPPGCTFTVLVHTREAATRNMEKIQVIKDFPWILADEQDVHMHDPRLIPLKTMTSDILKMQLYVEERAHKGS
SMILES,stabilization of folded MAD2L2 (in words) (MAD2L2),MAD2L2 aggregation temperature (MAD2L2; normal conditions between 46° C. and 49° C.),"survival rate, combined treatment (A549 cells)","toxicity / cell viability, compound alone (A549 cells)","toxicity / cell viability, compound alone (A549 cells; listed as c #2)",sensitization effect to cisplatin (A549 cells),cell survival with cisplatin plus inhibitor (A549 cells),"survival rate, combined treatment (H1975 cells)","toxicity / cell viability, compound alone (H1975 cells)","toxicity / cell viability, compound alone (H1975 cells; listed as c #2)",sensitization effect to cisplatin (H1975 cells),sensitization to doxorubicin (H1975 cells),cell survival with cisplatin plus inhibitor (H1975 cells),"cells with more than 80 foci or very bright signal, combined treatment (γH2AX foci in A549 cells)","number of γH2AX foci/cell, combined treatment (γH2AX foci in A549 cells)",stabilization of folded MAD2L2 (in words) (MAD2L2; listed as c #3),"toxicity / cell viability, compound alone (A549 cells; listed as c #3)","toxicity / cell viability, compound alone (H1975 cells; listed as c #3)","increase in γ-H2AX foci/cell in co-treated cells (γH2AX foci in A549 cells; A549, 10 μM cisplatin + 50 μM c #3, 16 h)","γ-H2AX signal, c #3 alone (γH2AX foci in A549 cells; A549, c #3 alone)"
CNc1nc(N2CCCCC2)nc(-n2cnc(SCC(N)=O)n2)n1 [Compound 2],stabilize the folded MAD2L2 protein,milder change in MAD2L2's aggregation temperature,50%,no reduction in cell viability,caused no toxicity,approximately twofold sensitization effect,reduction in cell survival,50%,no reduction in cell viability,caused no toxicity,approximately twofold sensitization effect,sensitized,reduction in cell survival,significantly more abundant,significant increase in the number of γH2AX foci/cell,,,,,
Cc1oc(-c2ccco2)nc1CC(=O)N[C@@H](C(=O)O)c1ccccc1 [Compound 3],,,50%,no reduction in cell viability,,approximately twofold sensitization effect,reduction in cell survival,50%,no reduction in cell viability,,approximately twofold sensitization effect,sensitized,reduction in cell survival,significantly more abundant,significant increase in the number of γH2AX foci/cell,stabilize the folded MAD2L2 protein; also recorded: stronger binding affinity to MAD2L2 than c #2,caused no toxicity,caused no toxicity,2 fold,no effect on the γ-H2AX signal
